Where two headings read alike, the source gives them in different places.
Tested on: 60 different human tumor cell lines
Conditions: for GI50 / TGI: five dose
[1] = A549/ATCC (Non-small Cell Lung Cancer)
[2] = EKVX (Non-small Cell Lung Cancer)
[3] = HOP-62 (Non-small Cell Lung Cancer)
[4] = HOP-92 (Non-small Cell Lung Cancer)
[5] = MDA-MB-231/ATCC (Breast Cancer)
[6] = NCI-H23 (Non-small Cell Lung Cancer)
[7] = NCI-H226 (Non-small Cell Lung Cancer)
[8] = NCI-H322M (Non-small Cell Lung Cancer)
[9] = NCI-H460 (Non-small Cell Lung Cancer)
[10] = NCI-H522 (Non-small Cell Lung Cancer)

**Q.** How did the CC50 turn out when “(1S,2R,13R,14S,18S)-7-(3-fluoroanilino)-2,18-dimethyl-6-thia-8-azapentacyclo[11.7.0.02,10.05,9.014,18]icosa-5(9),7,10-trien-17-one [IIa.8]” was run?
**A.** > 100000 nM

**Q.** And the GI50 (786-0 (Renal Cancer))?
**A.** 1430 nM

**Q.** What about the TGI (786-0 (Renal Cancer)) of the same substance?
**A.** 2.83E−6

**Q.** What about the GI50 (A498 (Renal Cancer)) of the same substance?
**A.** 2160 nM

**Q.** And the TGI (A498 (Renal Cancer))?
**A.** 6.77E−6

**Q.** What about the GI50 [1] of the same substance?
**A.** 2580 nM

**Q.** What about the TGI [1] of the same substance?
**A.** 7.50E−6

**Q.** And the GI50 (ACHN (Renal Cancer))?
**A.** 1780 nM

**Q.** And the TGI (ACHN (Renal Cancer))?
**A.** 3.24E−6

**Q.** And the GI50 (BT-549 (Breast Cancer))?
**A.** 1540 nM

**Q.** And the TGI (BT-549 (Breast Cancer))?
**A.** 3.62E−6

**Q.** What about the GI50 (CAKI-1 (Renal Cancer)) of the same substance?
**A.** 1990 nM

**Q.** What about the TGI (CAKI-1 (Renal Cancer)) of the same substance?
**A.** 5.73E−6

**Q.** What about the GI50 (CCRF-CEM (Leukemia)) of the same substance?
**A.** 1900 nM

**Q.** What about the TGI (CCRF-CEM (Leukemia)) of the same substance?
**A.** >1.00E−4

**Q.** What about the GI50 (COLO 205 (Colon Cancer)) of the same substance?
**A.** 2160 nM

**Q.** What about the TGI (COLO 205 (Colon Cancer)) of the same substance?
**A.** 4.81E−6

**Q.** And the GI50 (DU-145 (Prostate Cancer))?
**A.** 1930 nM

**Q.** And the TGI (DU-145 (Prostate Cancer))?
**A.** 4.87E−6

**Q.** And the GI50 [2]?
**A.** 2500 nM

**Q.** What about the TGI [2] of the same substance?
**A.** 1.85E−5

**Q.** What about the GI50 (HCC-2998 (Colon Cancer)) of the same substance?
**A.** 3550 nM

**Q.** And the TGI (HCC-2998 (Colon Cancer))?
**A.** 1.46E−5

**Q.** And the GI50 (HCT-15 (Colon Cancer))?
**A.** 1580 nM

**Q.** What about the TGI (HCT-15 (Colon Cancer)) of the same substance?
**A.** 4.08E−6

**Q.** And the GI50 (HCT-116 (Colon Cancer))?
**A.** 1590 nM

**Q.** What about the TGI (HCT-116 (Colon Cancer)) of the same substance?
**A.** 3.24E−6

**Q.** And the GI50 (HL-60(TB) (Leukemia))?
**A.** 2730 nM

**Q.** And the TGI (HL-60(TB) (Leukemia))?
**A.** 8.00E−6

**Q.** And the GI50 [3]?
**A.** 2070 nM

**Q.** What about the TGI [3] of the same substance?
**A.** 5.34E−6

**Q.** What about the GI50 [4] of the same substance?
**A.** 2250 nM

**Q.** What about the TGI [4] of the same substance?
**A.** 4.17E−6

**Q.** What about the GI50 (HS 578T (Breast Cancer)) of the same substance?
**A.** 3140 nM

**Q.** And the TGI (HS 578T (Breast Cancer))?
**A.** >1.00E−4

**Q.** What about the GI50 (HT29 (Colon Cancer)) of the same substance?
**A.** 1490 nM

**Q.** What about the TGI (HT29 (Colon Cancer)) of the same substance?
**A.** 3.51E−6

**Q.** What about the GI50 (IGROV1 (Ovarian Cancer)) of the same substance?
**A.** 1890 nM

**Q.** What about the TGI (IGROV1 (Ovarian Cancer)) of the same substance?
**A.** 3.83E−6

**Q.** And the GI50 (K-562 (Leukemia))?
**A.** 1860 nM

**Q.** And the GI50 (KM12 (Colon Cancer))?
**A.** 3000 nM

**Q.** What about the TGI (KM12 (Colon Cancer)) of the same substance?
**A.** 1.24E−5

**Q.** And the GI50 (LOX IMVI (Melanoma))?
**A.** 1670 nM

**Q.** And the TGI (LOX IMVI (Melanoma))?
**A.** 3.21E−6

**Q.** And the GI50 (M14 (Melanoma))?
**A.** 2360 nM

**Q.** And the TGI (M14 (Melanoma))?
**A.** 7.23E−6

**Q.** What about the GI50 (MALME-3M (Melanoma)) of the same substance?
**A.** 1940 nM

**Q.** And the TGI (MALME-3M (Melanoma))?
**A.** 5.04E−6

**Q.** And the GI50 (MCF7 (Breast Cancer))?
**A.** 1370 nM

**Q.** What about the TGI (MCF7 (Breast Cancer)) of the same substance?
**A.** 3.28E−6

**Q.** And the GI50 [5]?
**A.** 2110 nM

**Q.** What about the TGI [5] of the same substance?
**A.** 4.59E−6

**Q.** And the GI50 (MDA-MB-435 (Melanoma))?
**A.** 2740 nM

**Q.** And the TGI (MDA-MB-435 (Melanoma))?
**A.** 1.31E−5

**Q.** What about the GI50 (MDA-MB-468 (Breast Cancer)) of the same substance?
**A.** 2010 nM

**Q.** And the TGI (MDA-MB-468 (Breast Cancer))?
**A.** 4.18E−6

**Q.** What about the GI50 (MOLT-4 (Leukemia)) of the same substance?
**A.** 1680 nM

**Q.** And the TGI (MOLT-4 (Leukemia))?
**A.** 2.83E−5

**Q.** And the GI50 [6]?
**A.** 2270 nM

**Q.** What about the TGI [6] of the same substance?
**A.** 9.08E−6

**Q.** What about the GI50 [7] of the same substance?
**A.** 2350 nM

**Q.** What about the TGI [7] of the same substance?
**A.** 5.70E−6

**Q.** What about the GI50 [8] of the same substance?
**A.** 3600 nM

**Q.** What about the TGI [8] of the same substance?
**A.** 2.89E−6

**Q.** What about the GI50 [9] of the same substance?
**A.** 2520 nM

**Q.** And the TGI [9]?
**A.** 5.58E−6

**Q.** What about the GI50 [10] of the same substance?
**A.** 1630 nM

**Q.** And the TGI [10]?
**A.** 3.06E−6

**Q.** What about the GI50 (NCI/ADR-RES (Ovarian Cancer)) of the same substance?
**A.** 2810 nM

**Q.** And the TGI (NCI/ADR-RES (Ovarian Cancer))?
**A.** 1.72E−5

**Q.** And the GI50 (OVCAR-3 (Ovarian Cancer))?
**A.** 1720 nM

**Q.** What about the TGI (OVCAR-3 (Ovarian Cancer)) of the same substance?
**A.** 3.30E−6

**Q.** And the GI50 (OVCAR-4 (Ovarian Cancer))?
**A.** 2710 nM

**Q.** What about the TGI (OVCAR-4 (Ovarian Cancer)) of the same substance?
**A.** >1.00E−4

**Q.** And the GI50 (OVCAR-5 (Ovarian Cancer))?
**A.** 2730 nM

**Q.** What about the TGI (OVCAR-5 (Ovarian Cancer)) of the same substance?
**A.** 1.80E−5

**Q.** What about the GI50 (OVCAR-8 (Ovarian Cancer)) of the same substance?
**A.** 2790 nM

**Q.** And the TGI (OVCAR-8 (Ovarian Cancer))?
**A.** 7.98E−6

**Q.** What about the GI50 (PC-3 (Prostate Cancer)) of the same substance?
**A.** 1880 nM

**Q.** What about the TGI (PC-3 (Prostate Cancer)) of the same substance?
**A.** 3.87E−6

**Q.** What about the GI50 (RXF 393 (Renal Cancer)) of the same substance?
**A.** 1450 nM

**Q.** What about the TGI (RXF 393 (Renal Cancer)) of the same substance?
**A.** 3.25E−6

**Q.** What about the GI50 (SF-268 (CNS Cancer)) of the same substance?
**A.** 3090 nM

**Q.** What about the TGI (SF-268 (CNS Cancer)) of the same substance?
**A.** 1.11E−5

**Q.** And the GI50 (SK-MEL-2 (Melanoma))?
**A.** 1860 nM

**Q.** And the TGI (SK-MEL-2 (Melanoma))?
**A.** 5.19E−5
